Experimental data from PubChem BioAssay (NCI).
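48-hour exposure; five concentrations; linearly interpolated endpoints. GI50 = concentration required for 50% inhibition of growth. Definition used: TGI = concentration required for complete inhibition of growth.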

Experiments:
Assay in all cases: DTP human tumour cell line panel, 48 h
CCRF-CEM leukemia = test system: CCRF-CEM leukemia
NCI-H226 lung = test system: NCI-H226 lung
HT29 colon = test system: HT29 colon
HS 578T breast = test system: HS 578T breast
COLO 205 colon = test system: COLO 205 colon
BT-549 breast = test system: BT-549 breast
SF-295 CNS = test system: SF-295 CNS
UACC-257 melanoma = test system: UACC-257 melanoma
OVCAR-5 ovarian = test system: OVCAR-5 ovarian
OVCAR-8 ovarian = test system: OVCAR-8 ovarian

SMILES | TGI (CCRF-CEM leukemia) [µM] | TGI (NCI-H226 lung) [µM] | TGI (HT29 colon) [µM] | TGI (HS 578T breast) [µM] | TGI (COLO 205 colon) [µM] | TGI (BT-549 breast) [µM] | TGI (SF-295 CNS) [µM] | TGI (UACC-257 melanoma) [µM] | TGI (OVCAR-5 ovarian) [µM] | TGI (OVCAR-8 ovarian) [µM] | GI50 (CCRF-CEM leukemia) [µM] | GI50 (NCI-H226 lung) [µM] | GI50 (HT29 colon) [µM] | GI50 (HS 578T breast) [µM] | GI50 (COLO 205 colon) [µM] | GI50 (BT-549 breast) [µM] | GI50 (SF-295 CNS) [µM] | GI50 (UACC-257 melanoma) [µM] | GI50 (OVCAR-5 ovarian) [µM] | GI50 (OVCAR-8 ovarian) [µM]
COc1cc(N(C)C)c(OC)cc1/C=C\c1ccnc2ccccc12 | 9.41 | > 10 | > 10 | > 10 | > 10 | > 10 | > 10 | > 10 | > 10 | > 10 | – | – | – | – | – | – | – | – | – | –
O=C(Nc1ccncc1)C(=O)c1cn(S(=O)(=O)c2ccc(Cl)cc2)c2ccccc12 | > 100 | > 100 | > 32.4 | > 100 | > 100 | > 80.5 | 14.9 | > 100 | > 95.8 | 97.1 | 3.18 | 9.4 | 0.397 | 11.2 | > 61.5 | 3.75 | 1.68 | 1.1 | > 30.1 | 1.63
O=c1cc(-c2cccc3c2Sc2ccccc2S3)oc(N2CCOCC2)c1 | > 55.8 | 34.3 | 23.5 | 19.5 | 26.3 | 17 | 24.9 | 27.1 | 28.3 | 45.7 | 21.1 | 10.8 | 8.82 | 3.08 | 11.5 | 4.25 | 11.5 | 13.9 | 13.5 | 12.9
C[As](C)SCC(COC(=O)C(Cl)c1ccccc1)OC(=O)C(Cl)c1ccccc1 (centres undefined) | 2.14 | 41.8 | > 100 | 46.5 | – | 14.3 | 29.1 | 12.6 | > 37.2 | > 35.2 | 0.339 | 20.1 | 0.754 | 3.4 | 1.43 | 2.68 | 7.79 | 0.332 | 6.69 | 3.41
COc1c2ccoc2c(OC)c2oc(=O)ccc12 | > 100 | > 100 | > 100 | > 100 | > 100 | > 100 | > 100 | > 100 | > 100 | > 100 | – | – | – | – | – | – | – | – | – | –
O=C(NCCCO)c1cc(Cl)ccc1O | 17.3 | 13.4 | 10.8 | 21.4 | 5.85 | 12.7 | 6.01 | 7.54 | 19.9 | 13 | 0.728 | 3.27 | 2.16 | 3.98 | 1.95 | 3.27 | 1.36 | 2.23 | 4.4 | 2.38
C#Cc1c(/C=C/C(=O)OCC)ccc2ccccc12 | 30.9 | 82.9 | 26 | 83.2 | 33.5 | 44.7 | 45 | > 100 | > 100 | > 100 | 14.6 | 19.9 | 6.61 | 27.2 | 13.8 | 18.7 | 13.3 | 27.4 | 28.9 | 35.1
Cc1cc(N2CCOCC2)nc(N[C@@H]2CCC[C@H](Nc3ccnc4cc(Cl)ccc34)C2)n1 | 9.25 | 17.1 | 5.24 | 5.14 | 3.33 | 5.01 | 2.97 | 3.89 | 11.2 | 8.49 | 3.31 | 4.89 | 2.13 | 1.84 | 1.68 | 2.34 | 1.52 | 2.14 | 3.1 | 2.97
